According to article PMC12137981 (Acta Pharmaceutica Sinica. B, 2025):

Target: SUMOylation activating enzyme subunit 1 (SAE1) (Homo sapiens, UniProt Q9UBE0)
Assay: MST with RED-NHS-labeled purified SAE1
Type: binding

SUMOylation activating enzyme subunit 1 (SAE1), sequence (Q9UBE0 whole entry): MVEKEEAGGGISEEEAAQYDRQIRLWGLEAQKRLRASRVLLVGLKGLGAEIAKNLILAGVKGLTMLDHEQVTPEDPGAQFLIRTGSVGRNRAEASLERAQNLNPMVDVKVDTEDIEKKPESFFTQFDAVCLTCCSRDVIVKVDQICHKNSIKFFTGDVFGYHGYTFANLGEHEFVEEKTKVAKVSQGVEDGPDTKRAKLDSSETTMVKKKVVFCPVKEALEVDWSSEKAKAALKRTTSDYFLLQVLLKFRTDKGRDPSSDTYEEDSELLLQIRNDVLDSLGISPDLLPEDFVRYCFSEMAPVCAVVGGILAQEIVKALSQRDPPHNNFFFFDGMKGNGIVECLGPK

SMILES: COc1cc2c(c(OC)c1OC)-c1ccc(OC)c(=O)cc1[C@@H](NC(C)=O)CC2 [COL, colchicine]
- Kd: 2.56 µM
